Experimental data as given in patent US20240156755A1, “USE OF RIP1 INHIBITOR OR MLKL INHIBITOR FOR TREATING OR PREVENTING HEREDITARY RETINAL DYSTROPHY” (TZU CHI UNIVERSITY, priority 2022, published 2024).
Entries after “also recorded” stand apart in the source; their conditions may differ.

Columns and labels:
[1] = tested on: POMGNT1 knockout human RPE cells; test: Trans-epithelial electrical resistance (TEER) of RPE monolayers; type: cell-based; conditions: transwell culture
Experimental: The RPE is a polarized epithelial monolayer which lies between the photoreceptors and the choroid. The RPE is essential to keep neural retinal healthy by maintenance of many important functions including light absorption, trans-epithelial transport, phagocytosis, and secretion of growth factors. The feature of healthy RPE is the generation of a trans-epithelial electrical resistance by specific tight junctions between epithelial cells. Trans-epithelial electrical resistance (TEER) was determined in RPE monolayers in WT and POMGNT1 knockout cells using Millicell-ERS Voltmeter (MERS00002, EMD Millipore) with transwell culture to evaluate the cell monolayer integrity.
POMGNT1 knockout human RPE cell were treated with RIPA-56, a potent, selective RIP1 inhibitor or with GW806742X, a MLKL inhibitor.

[2] = tested on: POMGNT1 knockout human RPE cells; test: Immunoblotting of autophagy-related proteins and necroptosis markers; type: cell-based
Pomgnt1^L120R/L120R mice = test: Scotopic ERG after treatment of Pomgnt1^L120R/L120R mice; type: in vivo; conditions: 6-month-old mice, 3 months after injection; compared with AAV8-GFP treated group; RIPA-56 10 mg/Kg twice a week IP; AAV 1 μL 1×10^9 vg subretinal
Experimental: To evaluate retinal function in vivo, ERG was recorded with various light stimulus intensities under dark-adapted scotopic condition. Scotopic ERG records rod photoreceptor (a-wave), signal from rod to rod bipolar cell (b-wave), and retinal pigment epithelium (c-wave). […] This reduction in ERG a-, b, and c-wave amplitude indicated the function of rod photoreceptor, rod bipolar cells post-synaptic signal and RPE were greatly affected in Pomgnt1^L120R/L120R mouse retina.

Row | Compound | TEER level [1] | expression of beclin1, p62 and LC3b [2] | phospho-RIP3 and phosphor-MLKL [2] | scotopic ERG a-, b-, and c-wave amplitudes (Pomgnt1^L120R/L120R mice)
1 | CN(c1ccc(NC(=O)Nc2ccc(OC(F)(F)F)cc2)cc1)c1ccnc(Nc2cccc(S(N)(=O)=O)c2)n1 [GW806742X] | significant improvement | – | – | –
2 | CCC(C)(C)C(=O)N(O)Cc1ccccc1 [RIPA-56] | significant improvement; also recorded: improve | significantly decrease | inhibit | significantly improved
